# Reference: ChEMBL document CHEMBL4813948, “Cytotoxic and Anti-Inflammatory Sesquiterpenes from the Whole Plants of Centipeda minima” (J Nat Prod, 2021)
# Tests used:
# HeLa = assay: Cytotoxicity against human HeLa cells assessed as reduction in cell viability incubated for 48 hrs by MTT assay; format: functional, cell-based
# HCT-116 = assay: Cytotoxicity against human HCT-116 cells assessed as reduction in cell viability incubated for 48 hrs by MTT assay; format: functional, cell-based; settings: HCT-116, 48 h
# HepG2 = assay: Cytotoxicity against human HepG2 cells assessed as reduction in cell viability incubated for 48 hrs by MTT assay; format: functional, cell-based; settings: HepG2, 48 h
# RAW264.7 [1] = assay: Anti-inflammatory activity in mouse RAW264.7 cells assessed as inhibition of LPS-induced NO production incubated for 24 hrs by Griess reagent based assay; format: functional, cell-based; settings: RAW264.7, 24 h
# RAW264.7 [2] = assay: Cytotoxicity against mouse RAW264.7 cells after 24 hrs by MTT assay; format: cell-based; settings: raw264.7, 24 h
Compound,IC50 (HeLa),IC50 (HCT-116),IC50 (HepG2),IC50 (RAW264.7 [1]),Activity (RAW264.7 [2])
CC(C)CC(=O)O[C@H]1[C@@H]2[C@H](C)C(=O)O[C@@H]2C[C@@H](C)[C@@H]2C=CC(=O)[C@]21C,5.5 µM,7.2 µM,> 10 µM,1.7 µM,
C/C=C(\C)C(=O)O[C@H]1[C@@H]2[C@H](C)C(=O)O[C@@H]2C[C@@H](C)[C@@H]2C=CC(=O)[C@]21C,> 10 µM,> 10 µM,> 10 µM,> 10 µM,
C=C(C)C(=O)O[C@@H]1[C@@H]2[C@H](C[C@H](C)C3=CCC(=O)[C@@]31C)OC(=O)[C@@H]2C,> 10 µM,> 10 µM,> 10 µM,,
C=C1C(=O)O[C@@H]2C[C@@H](C)[C@@H]3[C@@H](OC)CC(=O)[C@@]3(C)[C@@H](OC(=O)/C(C)=C\C)[C@H]12,> 10 µM,> 10 µM,> 10 µM,,
C=C1C(=O)O[C@H]2C[C@@H](C)[C@@H]3[C@@H](OC(=O)C=C(C)C)C[C@@H](OC(=O)/C(C)=C\C)[C@@]3(C)C[C@H]12,> 10 µM,9.4 µM,3.5 µM,,
C=C(C)C(=O)O[C@@H]1C[C@H](OC(=O)C(C)C)[C@H]2[C@H](C)C[C@@H]3OC(=O)C(=C)[C@H]3C[C@@]21C,> 10 µM,> 10 µM,> 10 µM,3.9 µM,
CC(C)=CC(=O)O[C@H]1[C@@H]2[C@H](C)C(=O)O[C@@H]2C[C@@H](C)C2=CCC(=O)[C@]21C,> 10 µM,> 10 µM,> 10 µM,,
C=C1C(=O)O[C@H]2C[C@@H](C)[C@@H]3[C@@H](OC(=O)/C(C)=C/C)C[C@@H](OC(=O)/C(C)=C\C)[C@@]3(C)C[C@H]12,7.8 µM,6.6 µM,4.1 µM,,
C=C1C(=O)O[C@@H]2C[C@@H](C)[C@@H]3C=CC(=O)[C@@]3(C)[C@@H](OC(=O)C=C(C)C)[C@H]12,2.6 µM,0.8 µM,1.5 µM,,
C=C1C(=O)O[C@H]2C[C@@H](C)[C@@H]3[C@@H](OC(=O)C(C)C)C[C@@H](OC(=O)C=C(C)C)[C@@]3(C)C[C@H]12,> 10 µM,8.1 µM,6.5 µM,,
C=C1C(=O)O[C@H]2C[C@@H](C)[C@@H]3[C@@H](OC(=O)CC(C)C)C[C@@H](OC(=O)CC(C)C)[C@@]3(C)C[C@H]12,> 10 µM,9.9 µM,> 10 µM,0.1 µM,
C=C1C(=O)O[C@H]2C[C@@H](C)[C@@H]3[C@@H](OC(=O)C(C)C)C[C@@H](OC(=O)CC(C)C)[C@@]3(C)C[C@H]12,> 10 µM,> 10 µM,> 10 µM,0.2 µM,
C=C1C(=O)O[C@@H]2C[C@@H](C)[C@@H]3C=CC(=O)[C@@]3(C)[C@@H](OC(=O)/C(C)=C\C)[C@H]12,0.8 µM,2.9 µM,1.1 µM,,
C=C1C(=O)O[C@H]2C[C@@H](C)[C@@H]3[C@@H](OC(=O)C(C)C)C[C@@H](OC(=O)/C(C)=C/C)[C@@]3(C)C[C@H]12,> 10 µM,> 10 µM,8.7 µM,,
CC(C)=CC(=O)O[C@H]1[C@@H]2[C@H](C)C(=O)O[C@@H]2C[C@@H](C)[C@@H]2CCC(=O)[C@]21C,> 10 µM,> 10 µM,> 10 µM,,
C=C1C(=O)O[C@@H]2C[C@@H](C)[C@@H]3C(OC(=O)/C(C)=C\C)=C[C@@]4(C)O[C@@]34C[C@H]12,> 10 µM,> 10 µM,> 10 µM,,
C=C(C)C(=O)O[C@H]1[C@@H]2[C@H](C)C(=O)O[C@@H]2C[C@@H](C)[C@@H]2CCC(=O)[C@]21C,> 10 µM,> 10 µM,> 10 µM,,
C/C=C(/C)C(=O)O[C@H]1[C@@H]2[C@H](C)C(=O)O[C@@H]2C[C@@H](C)[C@@H]2[C@H](OC)CC(=O)[C@]21C,> 10 µM,> 10 µM,> 10 µM,> 10 µM,
C/C=C(/C)C(=O)O[C@H]1[C@@H]2[C@H](C)C(=O)O[C@@H]2C[C@@H](C)[C@@H]2CCC(=O)[C@]21C,> 10 µM,> 10 µM,> 10 µM,> 10 µM,
C=C1C(=O)O[C@H]2C[C@@H](C)[C@@H]3[C@@H](OC(=O)C(C)C)C[C@@H](OC(=O)C(C)C)[C@@]3(C)C[C@H]12,> 10 µM,> 10 µM,6.5 µM,,
C/C=C(/C)C(=O)O[C@H]1[C@@H]2[C@H](C)C(=O)O[C@@H]2C[C@@H](C)[C@@H]2[C@@H](OCC)CC(=O)[C@]21C,> 10 µM,> 10 µM,> 10 µM,> 10 µM,
CCC(C)C(=O)O[C@H]1[C@@H]2[C@H](C)C(=O)O[C@@H]2C[C@@H](C)[C@@H]2C=CC(=O)[C@]21C (stereo not given in full),2.4 µM,7.3 µM,> 10 µM,2.4 µM,
C=C1C(=O)O[C@H]2C[C@@H](C)[C@@H]3[C@@H](OC(=O)/C(C)=C\C)C[C@@H](OC(=O)CC(C)C)[C@@]3(C)C[C@H]12,9.4 µM,5.2 µM,2.9 µM,> 10 µM,
C=C1C(=O)O[C@@H]2C[C@@H](C)[C@@H]3C=CC(=O)[C@@]3(C)[C@@H](OC(=O)CC(C)C)[C@H]12,2 µM,3.3 µM,2.6 µM,0.2 µM,
C/C=C(/C)C(=O)O[C@H]1[C@@H]2[C@H](C)C(=O)O[C@@H]2C[C@@H](C)[C@@H]2C=CC(=O)[C@]21C [BREVILIN A],9.2 µM,> 10 µM,> 10 µM,,Toxic
C=C1C(=O)O[C@@H]2C[C@@H](C)[C@@H]3C=CC(=O)[C@@]3(C)[C@@H](OC(=O)C(C)C)[C@H]12 [HELENALINISOBUTYRATE],1.4 µM,0.4 µM,1.8 µM,,
